One compound from patent publication EP3434255A1, “IONTOPHORESIS METHOD, COMPOSITION AND KIT FOR DELIVERING N-ACETYL-3-TRIFLUOROMETHYL-PHENYL-(VALINE-GLYCINE) THROUGH THE SKIN” (priority 2017, dated 2019) can be followed below.

Data set [1] deals with Dermatomed porcine ear skin. The class given is in vitro ADME. The conditions noted are these: 1 % w/v in HEPES buffer (pH 7.15) containing 25 mM sodium chloride. The protocol: Untreated porcine ears were procured from a local slaughter house. Dorsal side of the porcine ears was used for the study.. For study #4, dermatomed porcine skin was prepared by dermatoming full thickness skin using Dermatome 75 mm (Nouvag AG TCM 3000, Goldach, Switzerland).
Dermatome is a surgical instrument used to produce thin slices of skin. Dermatoming is refering to the procedure to produce thin layers of the skin by using such device.
In vitro permeation study was performed using Franz diffusion cells (PermeGear V6 station vertical cell). These models contain 6 diffusion cells in each console with 5 ml receptor volume and 9 mm orifice. The diffusion area was 0.64 cm^2.
After washing the cells, receptor solution was left overnight and replaced with fresh sodium chloride solution (0.9 % w/v), 30 minutes prior to mounting the skin. The receptor chamber temperature was maintained at 37°C by the built-in water circulation jacket so as to attain the skin temperature of 32°C.
Skin pieces were then mounted between the donor and receptor compartment (containing 0.9 % (w/v) sodium chloride solution) of Franz diffusion cells with the stratum corneum facing towards the donor side.
The formulation (160 mg formulation containing 1.6 mg active/0.64 sq.cm) was applied in the donor chamber using a positive displacement pipette (Rainin PosD). Simplex formulation was applied in the donor chamber. The donor compartment was left open to mimic in vivo conditions. Six replicates (with the exception of preliminary study 4) were performed for each formulation for each test group (iontophoresis and corresponding passive control - "no current" group) as specified in Table 1 as follows. In the Table 1, the "active agent" is N-acetyl-3-trifluoromethyl-phenyl-(valine-glycine).
Current (0.2 mA/sq.) was applied using silver/silver chloride electrode system and a constant current source (Keithley®; Keithley Instruments, Cleveland, OH, USA). […] Current application was monitored with a chronometer. […]
Receptor samples were taken after stopping the current for the defined duration, which was 20 min in all the studies except study #4, in which sampling was performed at 5, 10, 20, 60, 120, and 240 min. […] The receptor samples were filtered and quantified with methanol calibration using LCMS.
All samples were analyzed by a validated LCMS method which was performed on an Agilent 6410 Triple Quad System to determine how much of the cosmetic agent passed into and through the skin.
Results of the studies were plotted as average amount of active permeated in receptor, quantity of the active in tape strips, and underlying skin for each test group (passive or iontophoresis treatment group). […]

A further data set is described as follows: pKa of the active agent. The class given is physicochemical.

Molecules are shown by their SMILES.

As for `CC(=O)N(c1cccc(C(F)(F)F)c1)C(C(=O)NCC(=O)O)C(C)C` (centres unmarked) [active agent, N-acetyl-3-trifluoromethyl-phenyl-(valine-glycine)], the “average cumulative amount of active delivered after 20 min” value in data set [1] (anodal iontophoresis 0.2 mA/sq.cm compared with passive and cathodal iontophoresis, p<0.05) was “significantly higher”. Also, the “permeation of the active agent through dermatomed porcine skin over 4 h study duration” value in data set [1] (anodal iontophoresis 0.2 mA/sq.cm for 2 h compared with passive and cathodal iontophoresis, p<0.05) is “significantly enhance”. For the same compound, the “cumulative active permeation after 20 min” value in data set [1] (cathodal iontophoresis 0.2 mA/sq.cm compared with passive, p>0.05) was “no significant difference”. Moreover, the “cumulative active permeation after 4 h” value in data set [1] (cathodal iontophoresis 0.2 mA/sq.cm for 2 h compared with passive, p>0.05) is listed as “no significant difference”. In “pKa of the active agent”, this compound gave a pKa of 3.3.

Broadly, the pKa is the pH at which an ionisable group is half protonated.
